{"source": "patent US12202907B2", "about": "“Nucleic acids encoding and methods of producing proteins comprising antibody chains” (Innate Pharma, priority 2018, dated 2025)", "origin": "cited, not measured here", "molecular_target": "T1, CD39 (Homo sapiens, UniProt P49961)", "T1 sequence (P49961 1-510)": "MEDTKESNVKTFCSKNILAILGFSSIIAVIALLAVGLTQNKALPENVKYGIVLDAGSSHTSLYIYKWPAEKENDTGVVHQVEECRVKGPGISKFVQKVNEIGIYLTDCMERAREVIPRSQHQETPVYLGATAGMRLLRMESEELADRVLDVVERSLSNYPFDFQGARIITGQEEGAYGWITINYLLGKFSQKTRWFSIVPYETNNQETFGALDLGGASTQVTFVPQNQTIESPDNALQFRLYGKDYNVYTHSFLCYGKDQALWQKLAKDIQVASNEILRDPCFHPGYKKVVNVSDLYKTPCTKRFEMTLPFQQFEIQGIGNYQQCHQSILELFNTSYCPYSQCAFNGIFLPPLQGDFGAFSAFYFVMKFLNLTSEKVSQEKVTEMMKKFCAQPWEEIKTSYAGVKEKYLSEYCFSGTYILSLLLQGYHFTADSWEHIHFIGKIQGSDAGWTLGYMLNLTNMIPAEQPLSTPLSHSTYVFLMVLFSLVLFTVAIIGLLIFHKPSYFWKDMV", "conditions": "Levesque et al. (2007); cited from earlier work", "data": [{"smiles": "CCN(CC)c1ncnc2c1ncn2[C@@H]1O[C@H](COP(=O)(O)OP(=O)(O)C(Br)(Br)P(=O)(O)O)[C@@H](O)[C@H]1O", "note": "[ARL67156]", "values": [{"measurement": "inhibition of CD39 (mode, strength)", "value": "weak competitive inhibitor"}]}]}
